Laboratory results from paper PMC7031696 (Cell chemical biology, 2019).
Entries after “also recorded” stand apart in the source; their conditions may differ. Like-named read-outs stand apart in the source and are kept apart here.

Key:
[1] = tested on: Plasmodium falciparum 3D7-A10 parasites; assay: Stage specificity assay (8-h exposure of synchronized stages, IC50^8h); type: cell-based; conditions: for Ratio lowest IC50 8hr/IC50 72hr: 3D7-A10; for Stage of peak activity (Figure 6): period when the parasite was most susceptible (lowest IC50^8h)
[2] = tested on: asynchronous 3D7-A10 parasite cultures; assay: Standard 72-h exposure asexual blood stage susceptibility assay (IC50^72h); type: cell-based, Plasmodium falciparum; conditions: read-out: Overall (72hr assay) Mean IC50 (IC50^72h); 72-h exposure, asynchronous 3D7-A10
[3] = read-out: Early trophozoites Mean IC50 (IC50^8h), 8-h exposure 16–24 hr, 3D7-A10, survival at 60 h
[4] = read-out: Late trophozoites Mean IC50 (IC50^8h), 8-h exposure 24–32 hr, 3D7-A10, survival at 60 h
[5] = read-out: Schizonts Mean IC50 (IC50^8h), 8-h exposure 32–40 hr, 3D7-A10, survival at 60 h
[6] = read-out: Early rings Mean IC50 (IC50^8h), 8-h exposure 0–8 hr, 3D7-A10, survival at 60 h
[7] = read-out: Late rings Mean IC50 (IC50^8h), 8-h exposure 8–16 hr, 3D7-A10, survival at 60 h

Molecule	Ratio lowest IC50 8hr/IC50 72hr [1]	killing in stage specificity assay ([1]; 8-h exposures, survival curves)	Stage of peak activity (Figure 6) [1]	IC50 ([1]; read-out: Early rings IC50 (IC50^8h), 8-h exposure 0–8 hr, bound given in μM) [µM]	IC50 [1, 3] [µM]	IC50 ([1]; read-out: Late rings IC50 (IC50^8h), 8-h exposure 8–16 hr, bound given in μM) [µM]	IC50 [1, 4] [µM]	IC50 [1, 5] [µM]	Peak Activity (Table S1) ([1]; stage(s) with the lowest IC50^8h)	IC50 [2] [nM]	overall activity profile (stages on which active) ([1]; 8-h exposures)	IC50 [1, 6] [µM]	IC50 [1, 7] [µM]
CC(C)(C)c1ccc2c(c1)CN(Cc1ccc(Cl)cc1)CO2 [MMV000442]	4.7	incomplete killing at all asexual blood stages	trophozoites	> 8	0.176	> 8	0.197	0.503	Trophs	37.2	–	–	–
CN(C)Cc1ccc(-c2cc3c(-c4ccc(CN(C)C)cc4)ccnc3[nH]2)cc1.O=C(O)C(F)(F)F [MMV022224]	2.7	–	rings and trophozoites	–	0.542	–	0.752	2.49	–	199	activity exclusively in rings and trophozoites but not in schizonts	0.838	0.845
CC(C)(C)NCc1cc(Nc2ccnc3cc(Cl)ccc23)c2c(c1O)CCCC2 [Naphtoquine, Naphthoquine, reference compound]	1.3	–	early rings; also recorded: ring stages	–	0.0195	–	0.0292	0.0428	–	3.2	–	0.0042	0.0081
Ferroquine [reference compound]	1.4	–	early rings; also recorded: ring stages	–	0.0232	–	0.0368	0.0493	–	3.5	–	0.0049	0.0109
